Earlier results on three compounds are cited in PMC5087393, “A Toolbox of Genetically Encoded FRET-Based Biosensors for Rapid L-Lysine Analysis” (Sensors (Basel, Switzerland), 2016).

In data set [1] the test system is LAO-binding protein of E. coli. The note with it: read-out: Kd (equilibrium dialysis); without permutation and fluorescent proteins; 10 mM KPi buffer, pH 7.0, 50 mM NaCl. Background: Equilibrium dialysis compares concentrations on both sides of a semipermeable membrane.
For data set [2], the target named is LAO-binding protein from S. typhimurium. Also noted: method as in PMID 1400387. As to conditions: 10 mM NaPi buffer, pH 7.0; read-out: Kd (equilibrium dialysis).

By Kd is commonly meant the equilibrium constant for the complex coming apart. Take `NCCCC[C@H](N)C(=O)O` [L-lysine]: the Kd in data set [1] was 3000 nM; in data set [2], 15 nM.
For the compound `N[C@@H](Cc1c[nH]cn1)C(=O)O` [L-histidine], the equilibrium dissociation constant (Kd) in data set [2] is 500 nM.
Take `N=C(N)NCCC[C@H](N)C(=O)O` [L-arginine]: the dissociation constant Kd was 1500 nM in data set [1] and 14 nM in data set [2].
